Assay results reported in the METLIN SMRT retention time set (Domingo-Almenara et al. 2019).

Assay: gradient 5% acetonitrile 3 min, to 50% in 2 min, to 85% in 15 min, held 3 min, 100 µL/min
Settings: column: Zorbax Extend-C18 2.1 x 50 mm; eluents: water / acetonitrile, 0.1% formic acid
Summary of the method: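 Pure standards were run in mixtures of ~100 molecules by HPLC coupled to a quadrupole time-of-flight mass spectrometer. The column was a Zorbax Extend-C18 (2.1 × 50 mm, 1.8 μm) at 100 μL/min, with water and acetonitrile each containing 0.1% formic acid, in positive and negative ionization mode. Dead and dwell volumes were 40 μL and 900 μL. Retention time was taken from computationally picked adduct peaks, each manually inspected, with data collected over 3 months.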

Compound	RP-LC retention time [s]
COc1ccc(C2CCN(S(C)(=O)=O)CC2)cc1	845
CCOC(=O)CNC(=O)N1CCN(Cc2nc3cc(-c4ccccc4)ccc3o2)CC1	601
CCN1C(=O)CCc2cc(NS(=O)(=O)c3cccc(C)c3)ccc21	788
Cc1nn(-c2ccc(-c3ccccc3)nn2)c(C)c1S(=O)(=O)NCc1ccccc1	1030
O=C(Cn1ccn2nc(-c3ccc(F)cc3)c(CO)c2c1=O)NCc1ccc2c(c1)OCO2	778
Cn1nccc1-c1cccc(-c2noc(-c3ccccc3Cl)n2)c1	1170
CO[C@@H]1C(O)[C@H](O[C@H]2CC[C@@]3(C=O)[C@H](CC[C@@H]4[C@@H]3CC[C@]3(C)[C@@H](C5=CC(=O)OC5)CC[C@]43O)C2)OC(C)[C@@H]1O (some centres not stated)	772
CC(C)Cn1cc2c3c(cccc31)CN(C(=O)Nc1ccc(F)cc1)CC2	1070
CCCCN1C(=O)C(CC(=O)NC(C)C)Sc2ncccc21 (configuration not stated)	742
CC(=O)Nc1nsc(N2CCC(C(=O)N3CCN(c4ccccc4F)CC3)CC2)n1	695
O=C(Cn1cnc2nc3c(cc2c1=O)CCCC3)NCc1cccc(Br)c1	756
Cc1ccccc1CNC(=O)C1CCCN(c2nccnc2Sc2ccccc2)C1 (configuration not stated)	1200
O=C(c1csc(N2CCN(c3ccc(F)cc3)CC2)n1)N1CCCCC1	1000
CN(C)c1ccc(CCCNC(=O)C2CC2)cc1	525
Cc1ccc(C)c(-c2csc(Nc3ccccn3)n2)c1	821
CCc1ccc(NC(=O)C2(C)Oc3cccnc3NC2=O)cc1 (configuration not stated)	770
CCC(C)NC(=O)CSc1ccc(-n2nccc2-c2ccc(OC)cc2)nn1 (configuration not stated)	989
CCOC(=O)Cn1c(C2CC(=O)N(c3cccc(Cl)c3)C2)nc2ccccc21 (configuration not stated)	872
O=C(C1CCC1)N1CCC(c2noc(-c3ccncc3)n2)C1 (configuration not stated)	693
Ic1ccccc1CNC1C2CCN(CC2)C1C(c1ccccc1)c1ccccc1 (configuration not stated)	982
COc1ccc(-c2ccc(=O)n(CCCNC(=O)c3ccc(S(N)(=O)=O)cc3)n2)cc1	812
CCOC(=O)N1CCN(c2ncc(S(=O)(=O)c3ccccc3)c(N)n2)CC1	821
C=CCNC(=O)c1ccc2c(c1)c(C)c(C)n2C	828
Cc1nc(-c2noc(-c3ccc(F)cc3)n2)cn1CC(=O)NC(C)c1ccccc1 (configuration not stated)	854

Compound	RP-LC retention time [s]
O=C(NCc1ccco1)c1ccc(Nc2c(-c3ccccc3)nc3cnccn23)cc1	733
O=C(COc1ccccc1)Nc1nc(-c2ccc(F)cc2)cs1	1050
CCOc1ccccc1N1CCN(c2cc(C(=O)O)c3cc(NC(=O)CC)ccc3n2)CC1	634
CCc1ccc(-c2cc3c(=O)n(Cc4noc(CN5CCCC(C)C5)n4)ccn3n2)cc1 (configuration not stated)	726
COc1cccc(Oc2nccn3c(=O)n(CC(=O)Nc4ccccc4C(F)(F)F)nc23)c1	850
O=C(Nc1nnc(-c2ccc(Br)cc2)o1)c1ccccc1F	788
O=C(Cn1cccc(S(=O)(=O)N2CCOCC2)c1=O)N1CCc2ccccc21	667
Cn1nc(N2CCC(NC(=O)c3ccsc3)C2)ccc1=O (configuration not stated)	640
O=C1CCCc2cc(S(=O)(=O)NCCCN3CCN(Cc4ccccc4)CC3)ccc2N1	581
CCCOc1nc2ccccc2nc1N1CCCC(C(=O)Nc2c(Cl)cc(OC)cc2OC)C1 (configuration not stated)	1370
COc1ccc(NC(=O)CSc2ccc(N3CCCC(C(=O)NC4CC4)C3)nn2)cc1OC (configuration not stated)	596
Cc1ccc(-c2cc3n(n2)CCCN(C(=O)c2cccc(C#N)c2)C3)cc1	862
COc1ccc(-c2nnc3n2CCN(Cc2cnn(C)c2C)C3)cc1	583
COC(=O)C1=CN(c2cccc(Cl)c2)c2cc(F)ccc2S1(=O)=O	897
Cc1nn(-c2ccccc2)c(C)c1S(=O)(=O)N1CCC(C(=O)NC(C)(C)C)CC1	894
Cc1ccc(-c2cc(C(=O)N3CCC(NC(=O)C4CCCCC4)CC3)[nH]n2)c(C)c1	811
c1coc(CN2CC(Oc3ccc(-c4noc(-c5ccncc5)n4)cc3)C2)c1	665
Cc1ccc(CN2CC(=O)N(c3ccccc3)[C@@H]3CS(=O)(=O)C[C@@H]32)cc1	800
Cc1ccc(-c2nc(-c3ccc4oc(C)nc4c3)no2)cc1	1180
Cn1cc(S(=O)(=O)N2CCCCC2)cc1C(=O)Nc1ccc(F)c(Cl)c1	1100
Cc1ccccc1CNC(=O)C1(C)CCCN(C(=O)Nc2cccc(Cl)c2C)C1 (configuration not stated)	1060
CSc1ccc(-c2nc3ncccn3c2Nc2ccccc2C)cc1	839
Cn1cnc2ccc(-c3noc(-c4ccc(F)cc4)n3)cc21	739

Further lines, results first:

RP-LC retention time [s]	Compound
660	CCc1ccccc1NC(=O)C1CCN(c2nnc3ccccn23)CC1
616	CCn1cc(-c2nc(C)c(C(=O)NCc3ccncc3)s2)c2cccnc21
591	Cc1ccsc1CN1CCn2c(nnc2[C@@H]2C[C@@H](O)CN2Cc2cccnc2)C1
801	O=C(c1ccc(OCC2CCCN(C(=O)c3ccc(F)c(F)c3)C2)cc1)N1CCOCC1 (configuration not stated)
788	COC(=O)C1=CN(c2ccc(OC)c(OC)c2)c2ccc(F)cc2S1(=O)=O
692	CCn1ccc2c(cc(C(=O)Nc3ccc(OC)cc3OC)n2C)c1=O
590	O=C(NCCN1CCOCC1)c1sc2cc(Cl)ccc2c1Cl
807	Cc1cc(N2C=NS(=O)(=O)c3cccnc32)ccc1F
811	CCC(C)(C)C(=O)N1CCC2(CCc3nn(Cc4ccccc4)c(=O)n3CC2)CC1
631	COc1ccc(NC(=O)Cn2ccnc2-c2ccnc(N3CCOCC3)c2)cc1Cl
959	O=C(Nc1ccc(Cl)cc1)C(=O)c1cn(CC(=O)N2CCOCC2)c2ccccc12
617	O=C1C[C@@H](c2ccc(O)c(O)c2)Oc2c1ccc(O[C@@H]1O[C@H](CO)[C@@H](O)[C@H](O)[C@H]1O)c2O
710	O=C(C(=O)N1CCN(c2cccc(Cl)c2)CC1)c1c[nH]c2ccccc12
606	CCOc1ccc(-n2ccn3c(CCCC(=O)N4CCN(c5ccccn5)CC4)nnc3c2=O)cc1
549	CN1CCN(CCNC(=O)c2cccc(N3CCNC(c4ccccc4)C3)n2)CC1 (configuration not stated)
765	CCc1ccc(CNC(=O)Cn2cnc3nc4c(cc3c2=O)CCCC4)cc1
815	Cc1cnnn1-c1ccc(C(=O)Nc2cc(Cl)ccc2Cl)cc1
677	CCn1nccc1C(=O)N1C[C@@H]2C[C@H](NS(=O)(=O)c3ccccc3)[C@H]1C2
719	O=C(NC1CCN(c2cc(-c3cccs3)[nH]n2)C1)c1cccc(Cl)c1 (configuration not stated)
1330	CCCc1ccc(S(=O)(=O)N2CCCC2c2nc(-c3cccc(C)c3)no2)cc1 (configuration not stated)

RP-LC retention time [s]	Compound
1090	Cc1cc(=O)n(CC(=O)Nc2ccc(F)c(Cl)c2)c(-c2ccccc2)n1
923	Cc1ccc(NC(=O)Cn2nc3c(Oc4ccccc4C)nccn3c2=O)cc1C
696	COc1ccc(CN(Cc2ccccc2)Cc2cc(=O)n3cc(C)ccc3n2)cc1
633	Cc1noc(C)c1CCC(=O)NCCOc1ccc2nnc(-c3cccc(F)c3)n2n1
780	O=C(Cc1nnc2cc(-c3nc(C4CC4)no3)ccn12)N1CCc2ccccc2C1
819	O=C1COc2cc(S(=O)(=O)N3CCCC3C(=O)NC3CCCCCC3)c(Cl)cc2N1 (configuration not stated)
781	CCN1C(=O)CCC2(C(=O)Nc3ccc(C)cc3)CCCC=C12 (configuration not stated)
920	Cc1nc(-c2csc(S(=O)(=O)N3CCC(C(=O)Nc4ccc(F)cc4F)CC3)c2)no1
901	CC(C)C(=O)N1CCc2ccc(NC(=O)c3ccc(Cl)c(Cl)c3)cc2C1
893	COc1cc2c(cc1CNC(=O)Cn1cc(C(=O)C(C)C)c3ccccc31)OCCCO2
887	CS(=O)(=O)Nc1ccc(C2(C(=O)NCc3cccc(F)c3)CCCCC2)cc1
714	COc1ccc(Cn2c(C)c(CNCc3ccc(C)o3)c(C(=O)O)c2C)cc1
832	O=C([C@@H]1C[C@H](Oc2ccccc2)CN1C(=O)CC1CCCC1)N1CCCC1
832	CC(C)c1noc(C2CCCCN2Cc2nc(-c3cccnc3)no2)n1 (configuration not stated)
625	Cc1nnsc1C(=O)N1CCC(C(=O)Nc2nccs2)CC1
889	CSc1ccc(-c2nc3ncccn3c2Nc2ccc(C)c(C)c2)cc1
912	Cc1nn(-c2ccccc2)c(C)c1S(=O)(=O)N1CCC(C(=O)N2CCCCCC2)CC1
610	COc1ccc(N2C(=O)CCC(C(=O)NCCCN3CCCCCC3)C2c2ccc(F)cc2)cc1 (configuration not stated)
589	COCCN1CN=C(Nc2nc(C)c3ccccc3n2)NC1
860	CN1c2cc(C(=O)NCc3ccccc3Br)ccc2C(=O)N2CCCCC21 (configuration not stated)
